Measured values as given in patent US20220117917A1, “PH-ACTIVATED NANOPARTICLES” (Ohio State Innovation Foundation, priority 2018, published 2022).

Legend:
HER18 cells = test: Cell viability and Western blot; format: cell-based, human
Method: (§1) Immunoblotting. Immunoblotting was performed as described previously (Liu Y, et al. Nature 2015 520:697-701). Briefly, total cell lysates were solubilized in lysis buffer (50 mM Tris, pH 7.5, 150 mM NaCl, 1 mM EDTA, 0.5% NP-40, 0.5% Triton X-100, 1 mM phenylmethylsulfonyl fluoride, 1 mM sodium fluoride, 5 mM sodium vanadate, 1 μg each of aprotinin, leupeptin, and pepstatin per ml). Proteins were resolved by SDS-PAGE gels and then proteins were transferred to PVDF membranes (Bio-Rad). The membranes were blocked with 5% nonfat milk for 1 h at room temperature prior to incubation with indicated primary antibodies. Subsequently membranes were washed and incubated for 1 h at room temperature with peroxidase-conjugated secondary antibodies (Santa Cruz Biotechnology). Following several washes, chemiluminescent images of immunodetected bands on the membranes were recorded on X-ray films using the enhanced chemiluminescence (ECL) system (Perkinelmer) according to the manufacturer's instructions.
(§2) Cell viability assay. Equal numbers of cells were plated in 12 well plates in triplicate. After incubation with indicated reagents for 72 hours, cell viability was quantified using Vi-Cell cell viability analyzer (Beckman Coulter).

BT474 cells = test: Cell viability and Western blot; format: cell-based, human
Method: as §1, §2

HER18R cells = test: Cell viability and Western blot, trastuzumab-resistant cells; format: cell-based, human; settings: along with trastuzumab 1 μg/ml, 72 h
[1] = cited from earlier work
[2] = cited from earlier work; remark: listed apart in the source
Wip1 = biological target: T1, Wip1 (Homo sapiens, UniProt O15297); settings: cited from earlier work
T1 sequence (O15297 1-605): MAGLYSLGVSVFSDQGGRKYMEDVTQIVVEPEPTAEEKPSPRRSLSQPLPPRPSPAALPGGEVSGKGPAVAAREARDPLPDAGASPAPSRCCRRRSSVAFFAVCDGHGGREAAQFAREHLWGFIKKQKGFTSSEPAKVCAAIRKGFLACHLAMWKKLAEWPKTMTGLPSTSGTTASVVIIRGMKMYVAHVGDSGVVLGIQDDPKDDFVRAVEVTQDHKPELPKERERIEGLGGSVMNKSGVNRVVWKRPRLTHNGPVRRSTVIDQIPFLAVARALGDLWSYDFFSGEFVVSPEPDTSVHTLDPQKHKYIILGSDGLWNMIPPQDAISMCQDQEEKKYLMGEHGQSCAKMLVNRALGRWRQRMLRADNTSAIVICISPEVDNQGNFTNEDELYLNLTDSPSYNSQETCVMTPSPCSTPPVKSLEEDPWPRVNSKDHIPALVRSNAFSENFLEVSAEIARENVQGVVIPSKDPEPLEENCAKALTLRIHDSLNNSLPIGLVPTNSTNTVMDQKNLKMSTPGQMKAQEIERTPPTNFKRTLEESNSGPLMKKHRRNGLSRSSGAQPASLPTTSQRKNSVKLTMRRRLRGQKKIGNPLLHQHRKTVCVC

MDA-MB453 cells = test: Cell viability; format: cell-based, human; settings: 72 h; mutant p53
Method: as §2

[3] = Electrophoretic stability assay of anti-miR21 oligonucleotide; format: in vitro ADME; settings: 37° C.
Method: Electrophoretic gel assay. Free anti-miR21 oligonucleotide and in-MW@NP (in PBS or serum) were mixed with loading buffer, and then loaded into 2% wt agarose gel with […] ethidium bromide. Electrophoresis was conducted in 1×TEA buffer at 80 V for 10 min. The result gels were analyzed using a UV illuminator (FluorChem™ E System, CA, USA) to show its location of anti-miR21 oligonucleotide.

[4] = set-up: species or system mice; settings: mouse, in vivo
Method: The tumor targeting capability of the nanoparticles was next investigated in mice. Indocyanine green (ICG) was encapsulated in the nanoparticles for in vivo imaging. […] To confirm the observation from whole animal imaging, various organs were harvested for ex vivo imaging to check the biodistribution of ICG after sacrificing the mice at 24 h. […] The antitumor efficacy and safety of the WIP1 and/or miR-21 inhibitor-laden nanoparticles were also investigated in vivo by treating orthotopic HER18R mammary tumor-bearing mice. The tumors were established by injecting 2,000,000 HER18R cells per animal into the fat pad of 6-8 week-old female nude mice. The tumor-bearing mice were divided randomly into four groups: blank nanoparticles, WIP1 inhibitor-laden nanoparticles, miR-21 inhibitor-laden nanoparticles, and WIP1+miR-21 inhibitors-laden nanoparticles. Mice were treated with 1.0 mg/kg body weight of miR-21 inhibitor and/or 5.0 mg/kg of WIP1 inhibitor encapsulated in the nanoparticles via intravenous injection when the tumor reached a volume of ˜150 mm^3 at 21 days after implantation. […] Moreover, side effect of the drug-laden or blank nanoparticles was negligible.

| Compound | sensitivity (cell viability) (HER18 cells; 72 h, wildtype p53) | phosphorylated CHK2 and p21 levels (HER18 cells; immunoblotting) | sensitivity (cell viability) (BT474 cells; 72 h, mutant p53) | sensitization to trastuzumab (HER18R cells) | bioavailability in vivo [1] | solubility in water [2] | selectivity for Wip1 over other phosphatases (Wip1) | sensitivity (cell viability) (MDA-MB453 cells) | cell proliferation and viability (BT474 cells; HER2+/p53-mutant cells with 17q23 amplification) | stability in blood ([1]; in vivo) | onset of degradation [3] | time oligonucleotide observable ([3]; up to 36 h) | ICG fluorescence in liver [4] | ICG signal / localization [4] |
| --- | --- | --- | --- | --- | --- | --- | --- | --- | --- | --- | --- | --- | --- | --- |
| Cc1ncc(Cl)cc1NCc1ccc(C(=O)N[C@@H](CC2CCCC2)C(=O)NC2CC2)s1 [GSK2830371] | very sensitive | significantly increased the levels of phosphorylated CHK2 and the p53-induced p21 | notably insensitive | sensitized | poor bioavailability in vivo | poor solubility in water | selectivity for Wip1 over 21 other phosphatases | notably insensitive | – | – | – | – | – | – |
| anti-miR-21: anti-miR-21 oligonucleotide; in some embodiments UCAACAUCAGUCUGAUAAGCUAG (SEQ ID NO: 5) (further chemistry not given here) | – | – | – | sensitized | – | – | – | – | significantly reduced the cell proliferation and viability | relatively unstable in blood | started to degrade in a few minutes | less than 2 h | – | – |
| CC1(C)C(/C=C/C=C/C=C/C=C2\N(CCCCS(=O)(=O)O)c3ccc4ccccc4c3C2(C)C)=[N+](CCCCS(=O)(=O)[O-])c2ccc3ccccc3c21 [free ICG, Indocyanine green] | – | – | – | – | – | – | – | – | – | – | – | – | weak fluorescence | no notable signal |
